Where a name gives a salt, the structure may show the parent alone.

The assay has as its system NQO1 specific enzyme activity in BEAS-2B cells. The experiment in a line: BEAS-2B NQO1 MTT assay. The assay is classed as cell-based. Conditions: Homo sapiens, BEAS-2B, 48 h, NQO1 specific enzyme activity induction in BEAS-2B cells, 48 hours; read-out: EC50. Summed up: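 BEAS-2B cells exposed to compound 48 h at 37° C, 5% CO2, then lysed. NQO1 activity read kinetically in lysate with MTT cocktail (absorbance 570 nm, 30 min); Cell Titer Glo run on a lysate aliquot. pEC50 from ΔOD/min versus log concentration, 3-parameter fit.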
(In general: Tetrazolium dyes change colour on reduction, which living cells bring about.)
Broadly, the EC50 is the midpoint of the concentration-response curve. Turning to `Cc1c(C(c2ccc3c(c2)C(N2Cc4cccnc4OC(C)(C)C2)CC3)C(C)(C)C(=O)O)ccc2c1nnn2C` (stereo not drawn) [Example 34, 3-(1,4-Dimethyl-1H-benzo[d][1,2,3]triazol-5-yl)-3-(3-(2,2-dimethyl-2,3-dihydropyrido[3,2-f][1,4]oxazepin-4(5H)-yl)-2,3-dihydro-1H-inden-5-yl)-2,2-dimethylpropanoic acid, Formic Acid Salt], the concentration for a half-maximal effect (EC50) lay in the range of 1 to 10 nM.
Consider `Cc1c(C(CC(=O)O)c2ccc3c(c2)C(N2Cc4ccc(C#N)cc4OC(C)(C)C2)CC3)ccc2c1nnn2C` (stereo not drawn) [Example 35, 3-(3-(8-Cyano-2,2-dimethyl-2,3-dihydrobenzo[f][1,4]oxazepin-4(5H)-yl)-2,3-dihydro-1H-inden-5-yl)-3-(1,4-dimethyl-1H-benzo[d][1,2,3]triazol-5-yl)propanoic Acid, Formic Acid Salt], for which the EC50 was in the range of 1 to 10 nM.
Consider `COc1cc(C(CC(=O)O)c2ccc3c(c2)C(N2Cc4cnccc4OC(C)(C)C2)CC3)c(C)c2nnn(C)c12` (stereo not drawn) [Example 36, 3-(3-(2,2-Dimethyl-2,3-dihydropyrido[3,4-f][1,4]oxazepin-4(5H)-yl)-2,3-dihydro-1H-inden-5-yl)-3-(7-methoxy-1,4-dimethyl-1H-benzo[d][1,2,3]triazol-5-yl)propanoic Acid, Formic Acid Salt], for which the EC50 lay in the range of 1 to 10 nM.
To `CC[C@@H]1CN(C2CCc3ccc(C(c4ccc5c(nnn5C)c4C)C(C)(C)C(=O)O)cc32)Cc2cnccc2O1` (stereo partly drawn) [Example 37, 3-(1,4-Dimethyl-1H-benzo[d][1,2,3]triazol-5-yl)-3-(3-((R)-2-ethyl-2,3-dihydropyrido[3,4-f][1,4]oxazepin-4(5H)-yl)-2,3-dihydro-1H-inden-5-yl)-2,2-dimethylpropanoic Acid, Formic Acid Salt] belongs 1 to 10 nM.
The same measure for `Cc1c(C(c2ccc3c(c2)C(N2CCOc4ccccc4C2)CC3)C(C)(C)C(=O)O)ccc2c1nnn2C` (stereo not drawn) [Example 38, 3-(3-(2,3-Dihydrobenzo[f][1,4]oxazepin-4(5H)-yl)-2,3-dihydro-1H-inden-5-yl)-3-(1,4-dimethyl-1H-benzo[d][1,2,3]triazol-5-yl)-2,2-dimethylpropanoic Acid, Formic Acid Salt]: 1 to 10 nM.
Take `COc1cc(C(CC(=O)O)c2ccc3c(c2)C(N2Cc4cc(C)ccc4O[C@H](C)C2)CC3)c(C)c2nnn(C)c12` (stereo partly drawn) [Example 39, 3-(3-((R)-2,7-Dimethyl-2,3-dihydrobenzo[f][1,4]oxazepin-4(5H)-yl)-2,3-dihydro-1H-inden-5-yl)-3-(7-methoxy-1,4-dimethyl-1H-benzo[d][1,2,3]triazol-5-yl)propanoic Acid, Formic Acid Salt]: the EC50 fell in the range of 1 to 10 nM.
With `Cc1c(C(CC(=O)O)c2ccc3c(c2)C(N2Cc4ccccc4OC(C)(C)C2)CC3)ccc2c1nnn2C` (stereo not drawn) [Example 40, 3-(1,4-Dimethyl-1H-benzo[d][1,2,3]triazol-5-yl)-3-(3-(2,2-dimethyl-2,3-dihydrobenzo[f][1,4]oxazepin-4(5H)-yl)-2,3-dihydro-1H-inden-5-yl)propanoic Acid, Formic Acid Salt], the EC50 was 1 to 10 nM.
To `Cc1c(C(c2ccc3c(c2)C(N2Cc4cccnc4O[C@H](C)C2)CC3)C(C)(C)C(=O)O)ccc2c1nnn2C` (stereo partly drawn) [Example 42, 3-(1,4-Dimethyl-1H-benzo[d][1,2,3]triazol-5-yl)-2,2-dimethyl-3-(3-((R)-2-methyl-2,3-dihydropyrido[3,2-f][1,4]oxazepin-4(5H)-yl)-2,3-dihydro-1H-inden-5-yl)propanoic Acid, Formic Acid Salt] belongs 1 to 10 nM.
To `COc1cc(C(CC(=O)O)c2ccc3c(c2)C(N2Cc4ccccc4OC(C)(C)C2)CC3)cc2nnn(C)c12` (stereo not drawn) [Example 43, 3-(3-(2,2-Dimethyl-2,3-dihydrobenzo[f][1,4]oxazepin-4(5H)-yl)-2,3-dihydro-1H-inden-5-yl)-3-(7-methoxy-1-methyl-1H-benzo[d][1,2,3]triazol-5-yl)propanoic Acid, Formate Salt] belongs 1 to 10 nM.

Source of the values: patent publication US10272095B2 (GlaxoSmithKline Intellectual Property Development Limited, priority 2015, dated 2019).
